Measurements taken from article PMC9863987, “Identification of Aryl Polyamines Derivatives as Anti-Trypanosoma cruzi Agents Targeting Iron Superoxide Dismutase” (Pharmaceutics, 2022).

How the values were obtained:
T. cruzi Arequipa strain [1] = assay: Infection reactivation by cyclophosphamide immunosuppression in infected BALB/c mice; type: in vivo, Trypanosoma cruzi; details: oral 20 mg/Kg/day for 5 days, related to control group
[2] = Clinical analysis of heart, kidney and liver markers in serum of treated mice; type: in vivo, BALB/c mice; details: n = 3
Experimental: (§1) Infection was carried out by intraperitoneal inoculation of 5 × 10^5 BTs of T. cruzi Arequipa strain per mouse in 0.2 mL PBS [26]. The infection was monitored and on the 10th day post-infection (dpi), when BTs were visible in the bloodstream, the infection was confirmed.
(§2) Mice were divided into four groups (n = 3 per group): 0, negative control group (uninfected and untreated mice); I, positive control group (infected and untreated mice); II, BZN group (mice infected and treated with BZN); III, 15 group (mice infected and treated with 15).
(§3) The treatment for mice treated in the acute and chronic CD began when the infection was confirmed (10th dpi) and was stablished that the animals had entered the chronic CD (75th dpi), respectively (Scheme 1). Compound 15 and BZN were orally administered for 5 consecutive days at a dose of 20 mg·Kg^−1·day^−1.
Blood samples were collected in several dpi (Scheme 1) and processed according the method previously reported to obtain serum. Serum samples were then aliquoted to ELISA test and clinical analysis.
Heart, kidney and liver markers were measured from blood in several dpi (Scheme 1) with Cromakit® as previously reported. Mean and standard deviations were calculated using the levels measured for different populations of sera (n = 15, n = 3), and the confidence interval were also calculated based on a confidence level of 95% (100 × (1 − α) = 100 × (1 − 0.05)).

[3] = system: epimastigotes of T. cruzi Arequipa strain; assay: Mitochondrial membrane potential by flow cytometry (rhodamine 123); type: cell-based, Trypanosoma cruzi; details: compounds at IC25 concentrations, 72 h; KCN 10 mM, 40 min; mean of three ± SD
Vero cells = assay: Cytotoxicity test on mammalian Vero cells (resazurin); type: cell-based; details: Chlorocebus sabaeus, 48 h treatment + 24 h resazurin, mean of three ± SD, read-out: Toxicity IC50 Vero Cell
Experimental: Cytotoxicity against mammalian Vero cells (EACC No. 84113001) was tested as previously reported. In brief, 1.25 × 10^4 Vero cells·mL^−1, cultured at 37 °C, were treated by adding the compounds in serial dilutions from 400 to 1 µM in 96-well plates (200 µL·well^−1) for 48 h. BZN and untreated controls were also included in triplicate. Later, 20 μL of resazurin sodium salt (Sigma-Aldrich) was added, and the plates were incubated for another 24 h. Finally, cell viability was determined following the same procedure as described to assess the trypanocidal activity in the epimastigotes.

T. cruzi Arequipa strain [4] = assay: Monitoring of acute parasitaemia by counting in infected BALB/c mice; type: in vivo, Trypanosoma cruzi; details: acute infection
Experimental: (§4) All animal work (Scheme 1) and maintenance was performed under RD53/2013 and approved by the Ethics Committee on Animal Experimentation (CEEA) of the University of Granada, Spain. Female BALB/c mice (aged 10–12 weeks and 20–22 g) were used in the subsequent in vivo assays.
as §1, §2, §3
[…]. The fresh blood microscopic examination was performed from the 7th day until the day when parasitaemia was not detected (Scheme 1).

[5] = system: T. cruzi Arequipa strain trypomastigotes; assay: Screening against bloodstream trypomastigotes, Arequipa strain (resazurin); type: cell-based, Trypanosoma cruzi
[6] = type: in vivo, BALB/c mice; details: oral 20 mg/Kg/day for 5 days; acute and chronic infections
Experimental: as §4, §1, §2, §3

[7] = system: T. cruzi Arequipa strain epimastigotes; assay: Screening against extracellular epimastigotes, Arequipa strain (resazurin); type: cell-based, Trypanosoma cruzi
Experimental: Three different T. cruzi […] strains—MHOM/Pe/2011/Arequipa, discrete typing unit (DTU) V [26]; IRHOD/CO/2008/SN3, DTU I [27]; TINF/CH/1956/Tulahuen, DTU VI [26]—were grown at 28 °C in Gibco® RPMI 1640 Medium supplemented as previously reported, and used for in vitro screening.
Trypanocidal activity against epimastigotes was tested as previously reported. In brief, 5 × 10^5 mL^−1 epimastigotes culture medium were treated by adding the compounds in serial dilutions from 100 to 0.2 µM in 96-well plates (200 µL·well^−1) for 48 h. BZN and untreated growth control were also included in triplicate. Later, 20 μL of resazurin sodium salt (Sigma-Aldrich, St. Louis, MO, USA) was added, and the plates were incubated for another 24 h. Finally, the absorbance of the wells was measured at 570/600 nm and related to the control. The trypanocidal activity was expressed as the IC50 (inhibitory concentration 50) value using GraphPad Prism 6 software.

T. cruzi Arequipa strain [8] = assay: Nested amastigotes detection by PCR in nine target organs/tissues of infected BALB/c mice; type: in vivo, Trypanosoma cruzi; details: oral 20 mg/Kg/day for 5 days
Experimental: as §1, §2, §3
After CP-induced immunosuppression, the mice were euthanised using CO2 by exsanguination via cardiac puncture, and blood was collected. Then, 9 target organs/tissues were harvested: adipose, bone marrow, brain, oesophagus, heart, lung, muscle, spleen, and stomach. These organs/tissues were perfused with pre-warmed PBS to avoid contamination with BTs, and stored at −80 °C. In addition, spleens were weighed to assess splenomegaly.
DNA extraction of the target organs/tissues was performed using Wizard® Genomic DNA Purification Kit. DNA was subjected to amplification by PCR based on the sequence of the T. cruzi splice leader (SL) intergenic region using two published primers (TC and TC1) that allow the amplification of a 300 base pairs fragment in different biological samples. […]

[9] = treatment in the acute infection
[10] = treatment in acute phase, 16th dpi (2 days after treatment)
[11] = treatment in acute phase, necropsy day
[12] = treatment in chronic phase, 81th dpi (2 days after treatment)
[13] = treatment in chronic phase, necropsy day

Structure (SMILES): c1cc2nc(c1)CNCCN(CCNCc1ccc3ccc4ccc(CNCCN5CCNCc6cccc(n6)CNCC5)nc4c3n1)CCNC2 [Compound 15]
- reactivation of parasitaemia after immunosuppression (T. cruzi Arequipa strain [1]; [9]): 60%
- reactivation of parasitaemia after immunosuppression (T. cruzi Arequipa strain [1]; treatment in the chronic infection (from 75th dpi)): 26%
- ALP, variation over the range [2, 10]: = (variation ≤ 10%)
- ALT/GPT, variation over the range [2, 10]: ++ (20-30% increase/decrease over the range)
- AST/GOT, variation over the range [2, 10]: ++ (20-30% increase/decrease over the range)
- CK-MB, variation over the range [2, 10]: -- (20-30% increase/decrease over the range)
- LDH, variation over the range [2, 10]: = (variation ≤ 10%)
- Total bilirubin, variation over the range [2, 10]: + (10-20% increase/decrease over the range)
- Urea, variation over the range [2, 10]: - (10-20% increase/decrease over the range)
- Uric acid, variation over the range [2, 10]: -- (20-30% increase/decrease over the range)
- ALP, variation over the range [2, 11]: = (variation ≤ 10%)
- ALT/GPT, variation over the range [2, 11]: + (10-20% increase/decrease over the range)
- AST/GOT, variation over the range [2, 11]: + (10-20% increase/decrease over the range)
- CK-MB, variation over the range [2, 11]: = (variation ≤ 10%)
- LDH, variation over the range [2, 11]: = (variation ≤ 10%)
- Total bilirubin, variation over the range [2, 11]: + (10-20% increase/decrease over the range)
- Urea, variation over the range [2, 11]: = (variation ≤ 10%)
- Uric acid, variation over the range [2, 11]: = (variation ≤ 10%)
- ALP, variation over the range [2, 12]: = (variation ≤ 10%)
- ALT/GPT, variation over the range [2, 12]: + (10-20% increase/decrease over the range)
- AST/GOT, variation over the range [2, 12]: + (10-20% increase/decrease over the range)
- CK-MB, variation over the range [2, 12]: - (10-20% increase/decrease over the range)
- LDH, variation over the range [2, 12]: = (variation ≤ 10%)
- Total bilirubin, variation over the range [2, 12]: ++ (20-30% increase/decrease over the range)
- Urea, variation over the range [2, 12]: -- (20-30% increase/decrease over the range)
- Uric acid, variation over the range [2, 12]: --- (30-40% increase/decrease over the range)
- ALP, variation over the range [2, 13]: = (variation ≤ 10%)
- ALT/GPT, variation over the range [2, 13]: = (variation ≤ 10%)
- AST/GOT, variation over the range [2, 13]: = (variation ≤ 10%)
- CK-MB, variation over the range [2, 13]: = (variation ≤ 10%)
- LDH, variation over the range [2, 13]: = (variation ≤ 10%)
- Total bilirubin, variation over the range [2, 13]: + (10-20% increase/decrease over the range)
- Urea, variation over the range [2, 13]: - (10-20% increase/decrease over the range)
- Uric acid, variation over the range [2, 13]: - (10-20% increase/decrease over the range)
- Inhibition on mitochondrial membrane potential with respect to untreated epimastigotes [3]: 43.1%
- CC50 (Vero cells): 655 ± 51.9 µM
- parasitaemia reduction on the day of maximum parasitaemia (T. cruzi Arequipa strain [4]; oral 20 mg/Kg/day for 5 days from 10th dpi, vs untreated control): ~ 65%
- parasitaemia undetectable, days before control mice (T. cruzi Arequipa strain [4]; oral 20 mg/Kg/day for 5 days, control detectable up to 50 dpi): 5 days
- Selectivity Index T. cruzi Arequipa Strain T ([5]; IC50 Vero cells/IC50 trypomastigotes): 409.3
- IC50 ([5]; Trypanosoma cruzi, trypomastigotes, 24 h + 4 h resazurin, mean of three ± SD): 1.6 ± 0.1 µM
- death or body mass loss of treated mice [6]: none of the mice died or lost more than 10% body mass
- Selectivity Index T. cruzi Arequipa Strain E ([7]; IC50 Vero cells/IC50 epimastigotes): 101.7
- IC50 ([7]; Trypanosoma cruzi, epimastigotes, 48 h treatment + 24 h resazurin, mean of three ± SD, read-out: Activity IC50 T. cruzi Arequipa Strain E): 6.4 ± 0.6 µM
- clearance of nested parasites in target organs/tissues (parasite-free organs/tissues, PCR) (T. cruzi Arequipa strain [8]; [9]): 67%
- clearance of nested parasites in target organs/tissues (parasite-free organs/tissues, PCR) (T. cruzi Arequipa strain [8]; treatment in the chronic infection): 89%
